Experimental data from patent US20260078103A1, “ISOQUINOLONES AS PI3K INHIBITORS” (OnKure, Inc., priority 2022, published 2026).
Read-outs that look alike come from different tables or passages of the source.

How the values were obtained:
Format in all cases: cell-based
[1] = tested on: phosphorylation of AKT (pAKT) in SKBR3 cells express WT PI3Ka; test: In vitro cell pAKT (Ser473) HTRF, SKBR3 cells; conditions: cellular pAKT
Outline: (§1)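 Cells seeded on plates pre-stamped with 10-point compound dilutions, then grown 6 h at 37 °C (T47D in RPMI/10% FBS/insulin; SKBR3 in McCoy's 5a/10% FBS). Lysates read for pAKT Ser473 by HTRF after overnight antibody incubation. Inhibition normalised to 0.1% DMSO and 10 uM alpelisib; IC50 by four-parameter fit.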

[2] = tested on: SKBR3 cells express WT PI3Ka; test: In vitro cell proliferation, SKBR3 cells (CellTiter-Glo); conditions: inhibition of proliferation
Outline: (§2)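 T47D cells in RPMI/10% FBS/insulin (0.2 units/mL) or SKBR3 in McCoys 5a/10% FBS, 1,500 cells/well, grown 72 h at 37 °C with 10-point compound dilutions. CellTiter-Glo luminescence; % inhibition normalised to 0.1% DMSO and 10 uM Alpelisib, EC50 from four-parameter curve fit.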

[3] = tested on: T47D cells expressing mutant PI3Ka (H1047R); test: In vitro cell proliferation, T47D cells (CellTiter-Glo); conditions: inhibition of proliferation, read-out: Avg T-47D EC50
Outline: as §2

[4] = tested on: phosphorylation of AKT (pAKT) in T47D cells expressing mutant PI3Ka (H1047R); test: In vitro cell pAKT (Ser473) HTRF, T47D cells; conditions: cellular pAKT, T47D cells, mutant PI3Ka (H1047R), 6 hours, read-out: Avg T-47D IC50
Outline: as §1

| SMILES | IC50 ([1]; Homo sapiens, SK-BR-3, 6 h) [nM] | EC50 ([2]; Homo sapiens, SK-BR-3, 72 h) [nM] | EC50 ([3]; Homo sapiens, T47D, 72 h) [nM] | IC50 ([4]; Homo sapiens, T47D, 6 h) [nM] | IC50 ([1]; 6 hours) [nM] | EC50 ([2]; 72 hours) [nM] | EC50 ([3]; 72 hours) [nM] | IC50 [4] [nM] |
| --- | --- | --- | --- | --- | --- | --- | --- | --- |
| C[C@@H](Nc1ccccc1C(=O)O)c1cc(F)cc2c(=O)n(C)c(-c3cnc(-c4nccs4)c(F)c3)cc12 [Example 518] | > 15000 | > 15000 | 1 to 500 | 1 to 500 |  |  |  |  |
| Cc1ncc(-c2ncc(-c3cc4c([C@@H](C)Nc5ccccc5C(=O)O)cc(F)cc4c(=O)n3C)cc2F)s1 [Example 519] |  |  |  |  | > 15000 | > 15000 | 1 to 500 | 1 to 500 |
| Cc1cc(-c2ncc(-c3cc4c([C@@H](C)Nc5ccccc5C(=O)O)cc(F)cc4c(=O)n3C)cc2F)on1 [Example 520] |  |  |  |  | > 15000 | > 15000 | 1 to 500 | 1 to 500 |
| C[C@@H](Nc1ccccc1C(=O)O)c1cc(F)cc2c(=O)n(C)c(C34CC(C(F)(F)F)(C3)C4)cc12 [Example 521] |  |  |  |  | > 15000 | 2000 to 15000 | 1 to 500 | 1 to 500 |
| CCc1ncc(-c2cc3c([C@@H](C)Nc4ccccc4C(=O)O)cc(F)cc3c(=O)n2C)s1 [Example 524] | > 15000 | > 15000 | 1 to 500 | 1 to 500 |  |  |  |  |
| Cc1cc([C@@H](C)Nc2ccccc2C(=O)O)c2c(F)c(C3CC3)n(C)c(=O)c2c1 [Example 529] | > 15000 | > 15000 | 1 to 500 | 1 to 500 |  |  |  |  |
| CCOc1ncc(-c2c(F)c3c([C@@H](C)Nc4ccccc4C(=O)O)cc(C)cc3c(=O)n2C)s1 [Example 536] | > 15000 | > 15000 | 1 to 500 | 1 to 500 |  |  |  |  |
| C[C@@H](Nc1ccccc1C(=O)O)c1cc(F)cc2c(=O)n(C)c(-c3cnc(C(F)F)s3)cc12 [Example 539] | > 15000 | > 15000 | 1 to 500 | 1 to 500 |  |  |  |  |
| C[C@@H](Nc1ccccc1C(=O)O)c1cc(F)cc2c(=O)n(C)c(-c3ccc(COC(F)(F)F)nc3)cc12 [Example 540] | > 15000 | > 15000 | 1 to 500 | 1 to 500 |  |  |  |  |
| C#Cc1ccc(N[C@H](C)c2cc(F)cc3c(=O)n(C)c(-c4ccc(OCC(F)(F)F)nc4)cc23)c(C(=O)O)n1 [Example 542] |  |  |  |  | 2000 to 15000 | 2000 to 15000 | 1 to 500 | 1 to 500 |
| C[C@@H](Nc1ccccc1C(=O)O)c1cc(F)cc2c(=O)n(C)c(-c3cnc(-c4cn(C)nc4F)c(F)c3)cc12 [Example 543] |  |  |  |  | > 15000 | > 15000 | 1 to 500 | 1 to 500 |
| C[C@@H](Nc1ccccc1C(=O)O)c1cc(F)cc2c(=O)n(C)c(-c3cnc(CF)s3)cc12 [Example 545] | > 15000 | > 15000 | 1 to 500 | 1 to 500 |  |  |  |  |
| C[C@@H](Nc1ccccc1C(=O)O)c1cc(F)cc2c(=O)n(C)c(-c3ccc(OC4CC(F)(F)C4)nc3)cc12 [Example 546] |  |  |  |  | > 15000 | > 15000 | 1 to 500 | 1 to 500 |
| C[C@@H](Nc1ccccc1C(=O)O)c1cc(F)cc2c(=O)n(C)c(-c3ccc(OCC(F)(F)F)nc3)c(F)c12 [Example 547] | > 15000 | > 15000 | 500 to 2000 | 1 to 500 |  |  |  |  |
| C[C@@H](Nc1ccccc1C(=O)O)c1cc(F)cc2c(=O)n(C)c(-c3cnc(-c4cc(F)c(F)cc4F)c(F)c3)cc12 [Example 548] |  |  |  |  | > 15000 | 2000 to 15000 | 1 to 500 | 1 to 500 |
| Cc1cc([C@@H](C)Nc2ccccc2C(=O)O)c2cc(N3CCN(c4ccc(C)nn4)CC3)n(C)c(=O)c2c1 [Example 551] | 2000 to 15000 | 2000 to 15000 | 1 to 500 | 1 to 500 |  |  |  |  |
